In patent publication US20180055032A1, “ODORS FOR PSYLLID TRAPPING, REPELLING AND CONTROL” (The Regents of the University of California, priority 2011, published 2018):

Key:
Type in all cases: cell-based, Diaphorina citri
[1] = system: neuron 6B (rhinarial plate on flagellomere 6); assay: single-sensillum electrophysiology, odor response of neuron 6B; settings: for odor response (frequency of action potentials during stimulus minus baseline), 6B: Table 1, odor diluted to 1%, 50 μL in cartridge; for response to inhibitory odors, 6B: Table 2, odor diluted to 10^−2, 50 μL in cartridge
[2] = system: neuron 6A (rhinarial plate on flagellomere 6); assay: single-sensillum electrophysiology, odor response of neuron 6A; settings: for odor response (frequency of action potentials during stimulus minus baseline), 6A: Table 1, odor diluted to 1%, 50 μL in cartridge; for response to inhibitory odors, 6A: Table 2, odor diluted to 10^−2, 50 μL in cartridge; on response to ultra-prolonged activators, 6A: key: 0, no response; +, >50 spikes/second; ++, >100 spikes/second; +++, >150 spikes/second
[3] = system: neuron 7A (rhinarial plate on flagellomere 7); assay: single-sensillum electrophysiology, odor response of neuron 7A; settings: for odor response (frequency of action potentials during stimulus minus baseline), 7A: Table 1, odor diluted to 1%, 50 μL in cartridge; for response to inhibitory odors, 7A: Table 2, odor diluted to 10^−2, 50 μL in cartridge; on all read-outs here: key: 0, no response; +, >50 spikes/second; ++, >100 spikes/second; +++, >150 spikes/second
[4] = system: neuron 2A (rhinarial plate on flagellomere 2); assay: single-sensillum electrophysiology, odor response of neuron 2A; settings: for odor response (frequency of action potentials during stimulus minus baseline), 2A: Table 1, odor diluted to 1%, 50 μL in cartridge; for response to inhibitory odors, 2A: Table 2, odor diluted to 10^−2, 50 μL in cartridge; on all read-outs here: key: 0, no response; +, >50 spikes/second; ++, >100 spikes/second; +++, >150 spikes/second
[5] = system: neuron 7C (rhinarial plate on flagellomere 7); assay: single-sensillum electrophysiology, odor response of neuron 7C; settings: for odor response (frequency of action potentials during stimulus minus baseline), 7C: Table 1, odor diluted to 1%, 50 μL in cartridge; for response to inhibitory odors, 7C: Table 2, odor diluted to 10^−2, 50 μL in cartridge
[6] = system: neuron 7B (rhinarial plate on flagellomere 7); settings: for odor response (frequency of action potentials during stimulus minus baseline), 7B: Table 1, odor diluted to 1%, 50 μL in cartridge; on response to ultra-prolonged activators, 7B: key: 0, no response; +, >50 spikes/second; ++, >100 spikes/second; +++, >150 spikes/second
[7] = system: neuron 4C (rhinarial plate on flagellomere 4); assay: single-sensillum electrophysiology, odor response of neuron 4C; settings: for odor response (frequency of action potentials during stimulus minus baseline), 4C: Table 1, odor diluted to 1%, 50 μL in cartridge; for response to inhibitory odors, 4C: Table 2, odor diluted to 10^−2, 50 μL in cartridge
[8] = system: neuron 4A (rhinarial plate on flagellomere 4); assay: single-sensillum electrophysiology, odor response of neuron 4A; settings: for odor response (frequency of action potentials during stimulus minus baseline), 4A: Table 1, odor diluted to 1%, 50 μL in cartridge; for response to inhibitory odors, 4A: Table 2, odor diluted to 10^−2, 50 μL in cartridge
[9] = system: neuron 2B (rhinarial plate on flagellomere 2); assay: single-sensillum electrophysiology, odor response of neuron 2B; settings: for odor response (frequency of action potentials during stimulus minus baseline), 2B: Table 1, odor diluted to 1%, 50 μL in cartridge; for response to inhibitory odors, 2B: Table 2, odor diluted to 10^−2, 50 μL in cartridge
[10] = system: neuron 4B (rhinarial plate on flagellomere 4); settings: for odor response (frequency of action potentials during stimulus minus baseline), 4B: Table 1, odor diluted to 1%, 50 μL in cartridge; for response to inhibitory odors, 4B: Table 2, odor diluted to 10^−2, 50 μL in cartridge
[11] = system: neuron 6C (rhinarial plate on flagellomere 6); assay: single-sensillum electrophysiology, odor response of neuron 6C; settings: for odor response (frequency of action potentials during stimulus minus baseline), 6C: Table 1, odor diluted to 1%, 50 μL in cartridge; for response to inhibitory odors, 6C: Table 2, odor diluted to 10^−2, 50 μL in cartridge
[12] = system: neuron 2C (rhinarial plate on flagellomere 2); assay: single-sensillum electrophysiology, odor response of neuron 2C; settings: for odor response (frequency of action potentials during stimulus minus baseline), 2C: Table 1, odor diluted to 1%, 50 μL in cartridge
[13] = Table 3, 10^−2 in paraffin oil, 50 μL, odor puff of 0.5 sec
[14] = Table 2, odor diluted to 10^−2, 50 μL in cartridge

Row | SMILES | odor response (frequency of action potentials during stimulus minus baseline), 6B [1] | odor response (frequency of action potentials during stimulus minus baseline), 6A [2] | odor response (frequency of action potentials during stimulus minus baseline), 7A [3] | odor response (frequency of action potentials during stimulus minus baseline), 2A [4] | odor response (frequency of action potentials during stimulus minus baseline), 7C [5] | odor response (frequency of action potentials during stimulus minus baseline), 7B [6] | odor response (frequency of action potentials during stimulus minus baseline), 4C [7] | odor response (frequency of action potentials during stimulus minus baseline), 4A [8] | odor response (frequency of action potentials during stimulus minus baseline), 2B [9] | odor response (frequency of action potentials during stimulus minus baseline), 4B [10] | odor response (frequency of action potentials during stimulus minus baseline), 6C [11] | odor response (frequency of action potentials during stimulus minus baseline), 2C [12] | other results
1 | C=C(C)C1CC=C(C)CC1 (single isomer, unassigned; (+)) [(+)-limonene] | + (+, >50 spikes/second) | 0 | 0 | 0 | 0 | 0 | 0 | 0 | 0 | + (+, >50 spikes/second) | 0 | + (+, >50 spikes/second) | –
2 | CCCCCCO [1-hexanol] | + (+, >50 spikes/second) | 0 | 0 | 0 | 0 | 0 | 0 | 0 | 0 | + (+, >50 spikes/second) | 0 | 0 | response to ultra-prolonged activators, 6B [1, 13]: + (+, >50 spikes/second); response to ultra-prolonged activators, 6A [2, 13]: 0; response to ultra-prolonged activators, 7A [3, 13]: 0; response to ultra-prolonged activators, 2A [4, 13]: 0; response to ultra-prolonged activators, 7C [5, 13]: 0; response to ultra-prolonged activators, 7B [6, 13]: 0; response to ultra-prolonged activators, 4C [7, 13]: 0; response to ultra-prolonged activators, 4A [8, 13]: 0; response to ultra-prolonged activators, 2B [9, 13]: 0; response to ultra-prolonged activators, 4B [10, 13]: + (+, >50 spikes/second); response to ultra-prolonged activators, 6C [11, 13]: 0; response to ultra-prolonged activators, 2C [12, 13]: 0
3 | CCCCCCCCO [1-octanol] | + (+, >50 spikes/second) | 0 | 0 | 0 | 0 | 0 | 0 | 0 | 0 | + (+, >50 spikes/second) | 0 | 0 | –
4 | C=CC(O)CCCCC (stereo not drawn) [1-octen-3-ol] | + (+, >50 spikes/second) | 0 | 0 | 0 | 0 | 0 | 0 | 0 | 0 | 0 | 0 | 0 | –
5 | CCCCCC(C)=O [2-heptanone] | + (+, >50 spikes/second) | 0 | 0 | 0 | 0 | 0 | 0 | 0 | 0 | + (+, >50 spikes/second) | 0 | + (+, >50 spikes/second) | –
6 | CCCC(C)=O [2-pentanone] | + (+, >50 spikes/second) | 0 | 0 | 0 | 0 | 0 | 0 | 0 | 0 | + (+, >50 spikes/second) | 0 | 0 | –
7 | CCCCC(=O)O [pentanoic acid] | – | – | – | – | – | – | – | – | – | – | – | – | response to inhibitory odors, 6B [1]: 0; response to inhibitory odors, 6A [2]: 0; response to inhibitory odors, 7A [3]: 0; response to inhibitory odors, 2A [4]: 0; response to inhibitory odors, 7C [5]: 0; response to inhibitory odors, 4C [7]: 0; response to inhibitory odors, 4A [8]: 0; response to inhibitory odors, 2B [9]: 0; response to inhibitory odors, 4B [10]: 0; response to inhibitory odors, 6C [11]: 0; response to inhibitory odors, 2C [12, 14]: 0
8 | C=C(C)C1CC=C(C=O)CC1 (stereo not drawn) [perillaldehyde] | + (+, >50 spikes/second) | 0 | 0 | 0 | 0 | 0 | 0 | 0 | 0 | + (+, >50 spikes/second) | 0 | – | response to inhibitory odors, 6B [1]: 0; response to inhibitory odors, 6A [2]: 0; response to inhibitory odors, 7A [3]: 0; response to inhibitory odors, 2A [4]: 0; response to inhibitory odors, 7C [5]: 0; response to inhibitory odors, 7B [6, 14]: 0; response to inhibitory odors, 4C [7]: 0; response to inhibitory odors, 4A [8]: 0; response to inhibitory odors, 2B [9]: 0; response to inhibitory odors, 4B [10]: 0; response to inhibitory odors, 6C [11]: 0
